The data set is described as follows: Pharmacokinetics after oral gavage in mice. To be noted: 10 mg/kg.

The structures appear in SMILES notation.

Description: Concentrations of drugs and lipids were simultaneously quantified by a ACQUITY UPLC H-Class System (Waters, Milford, MA)^15. The mobile phase was composed of solvent A: 0.1% trifluoroacetic acid (TFA) in water and solvent B: 0.1% TFA in methanol. […] Concentrations of drugs and lipids were measured by integrating the peak area under the curve and compared to the standard curves. For plasma CQ quantitation, a Waters QDa mass spectrometry detector was used. Ionization was carried out at 250° C.
MLV-CQ drug formulation of the present invention or free CQ (dissolved in saline) was administered through oral gavage to mice at 10 mg CQ/kg (50 mg lipid/kg). […] Plasma was isolated by centrifugation at 4° C. for 10 min at 10,000 g. Forty-five L of plasma was mixed with 300 μL ethanol, vortexed for 30 s, placed on ice for 30 min, and centrifuged twice at 12,500 rpm for 5 min. The supernatant (280 μL) was collected, lyophilized, and reconstituted in 45 μL ethanol. Ten L of the sample was then injected into the UPLC to measure CQ concentration. Pharmacokinetics parameters and AUC were analyzed using PK solver^16 and GraphPad Prisim version 8.0 (GraphPad Software, San Diego, CA, USA), respectively.

As to `CCN(CC)CCCC(C)Nc1ccnc2cc(Cl)ccc12` (stereo not shown) [CQ solution, chloroquine diphosphate], the “CQ in plasma at 24 h” value is on record as “completely eliminated”.

For the origin of these results see US20260256694A1, “Multilamellar Vesicle Drug Formulation” (Nanostar Pharmaceuticals Ltd., priority 2022, published 2026).
